{"source": "EPA's ToxRefDB 2", "key": {"mouse": {"test_system": "mouse", "conditions": "Carcinogenicity; b6c3f1; Oral; Feed; dose end: 80 week; group: systemic; systemic / pathology microscopic / liver / hepatocellular carcinoma"}, "rat [1]": {"test_system": "rat", "conditions": "Developmental neurotoxicity study, sprague dawley, Oral, [Not Specified], dose end: 155 PND, group: cannot be grouped"}, "mink": {"test_system": "mink", "conditions": "Multigenerational reproductive toxicity study, ranch wild brown, Oral, Feed, dose end: 1 generation"}, "rat [2]": {"test_system": "rat", "conditions": "Carcinogenicity, Osborne-Mendel, Oral, Feed, dose end: 80 week, group: systemic"}, "rat [3]": {"test_system": "rat", "conditions": "Developmental neurotoxicity study; long evans; Inhalation; Whole-Body; dose end: 100 PND; group: cannot be grouped; developmental / developmental malformation / bone / incomplete ossification + developmental / developmental malformation / ovary / …"}, "[4]": {"conditions": "systemic / clinical chemistry / [other] / [other] + systemic / clinical chemistry / chloride / chloride + systemic / in life observation / …"}, "[5]": {"conditions": "systemic / clinical chemistry / chloride / chloride + systemic / in life observation / clinical signs / urination"}, "[6]": {"conditions": "group: offspring, developmental / offspring survival late / [other] / [other] + systemic / in life observation / body weight / offspring (pup) weight"}, "[7]": {"conditions": "group: offspring, systemic / in life observation / body weight / offspring (pup) weight"}, "[8]": {"conditions": "group: parental, systemic / in life observation / body weight / body weight + systemic / in life observation / clinical signs / [other] + systemic / in life …"}, "[9]": {"conditions": "group: reproductive, reproductive / reproductive performance / resorptions / resorptions + reproductive / offspring survival early / dead fetuses / dead fetuses"}, "[10]": {"conditions": "systemic / in life observation / clinical signs / palpable mass + systemic / in life observation / clinical signs / vaginal discharge"}, "[11]": {"conditions": "systemic / in life observation / clinical signs / palpable mass + systemic / in life observation / clinical signs / vaginal discharge + …"}}}
{"smiles": "ClC1=C(Cl)C2(Cl)C3C(Cl)C=CC3C1(Cl)C2(Cl)Cl", "note": "(stereo not drawn) [Heptachlor]", "values": [{"measurement": "LEL", "setting": "mouse", "value": 2.07, "unit": "mg/kg/day"}, {"measurement": "LOAEL", "setting": "mouse", "value": "> 2.07", "unit": "mg/kg/day"}, {"measurement": "NEL", "setting": "mouse", "value": 0.915, "unit": "mg/kg/day"}, {"measurement": "NOAEL", "setting": "mouse", "value": "≥ 2.07", "unit": "mg/kg/day"}, {"measurement": "LOAEL", "setting": "rat [1]; [4]", "value": "> 3", "unit": "mg/kg/day"}, {"measurement": "NOAEL", "setting": "rat [1]; [4]", "value": "≥ 3", "unit": "mg/kg/day"}, {"measurement": "LEL", "setting": "rat [1]; [5]", "value": 0.03, "unit": "mg/kg/day"}, {"measurement": "NEL", "setting": "rat [1]; [5]", "value": "< 0.03", "unit": "mg/kg/day"}, {"measurement": "LOAEL", "setting": "mink; [6]", "value": "> 25", "unit": "mg/kg/day"}, {"measurement": "NOAEL", "setting": "mink; [6]", "value": "≥ 25", "unit": "mg/kg/day"}, {"measurement": "LEL", "setting": "mink; [7]", "value": 6.25, "unit": "mg/kg/day"}, {"measurement": "NEL", "setting": "mink; [7]", "value": "< 6.25", "unit": "mg/kg/day"}, {"measurement": "LEL", "setting": "mink; [8]", "value": 12.5, "unit": "mg/kg/day"}, {"measurement": "LOAEL", "setting": "mink; [8]", "value": "> 25", "unit": "mg/kg/day"}, {"measurement": "NEL", "setting": "mink; [8]", "value": 6.25, "unit": "mg/kg/day"}, {"measurement": "NOAEL", "setting": "mink; [8]", "value": "≥ 25", "unit": "mg/kg/day"}, {"measurement": "NEL", "setting": "mink; group: reproductive, reproductive / reproductive performance / resorptions / resorptions", "value": 6.25, "unit": "mg/kg/day"}, {"measurement": "LEL", "setting": "mink; [9]", "value": 12.5, "unit": "mg/kg/day"}, {"measurement": "LOAEL", "setting": "mink; [9]", "value": "> 25", "unit": "mg/kg/day"}, {"measurement": "NOAEL", "setting": "mink; [9]", "value": "≥ 25", "unit": "mg/kg/day"}, {"measurement": "LEL", "setting": "rat [2]; [10]", "value": 1.28, "unit": "mg/kg/day"}, {"measurement": "NEL", "setting": "rat [2]; [10]", "value": "< 1.28", "unit": "mg/kg/day"}, {"measurement": "LOAEL", "setting": "rat [2]; [11]", "value": "> 2.56", "unit": "mg/kg/day"}, {"measurement": "NOAEL", "setting": "rat [2]; [11]", "value": "≥ 2.56", "unit": "mg/kg/day"}]}
{"smiles": "ClC=C(Cl)Cl", "note": "[Trichloroethylene]", "values": [{"measurement": "LEL", "setting": "rat [3]", "value": 1800, "unit": "ppm"}, {"measurement": "LOAEL", "setting": "rat [3]", "value": "> 1800", "unit": "ppm"}, {"measurement": "NEL", "setting": "rat [3]", "value": "< 1800", "unit": "ppm"}, {"measurement": "NOAEL", "setting": "rat [3]", "value": "≥ 1800", "unit": "ppm"}]}
